The subject of the experiment is rabbit skeletal myofibrils (fast skeletal myofibrils). Briefly: Activation of fast skeletal myofibrils (PUMA assay, AC1.4). To be noted: calcium at pCa25, AC1.4 = concentration at which the compound increased the enzymatic activity. The format is biochemical. Put shortly:
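Detergent-washed rabbit psoas myofibrils (~90% fast fibers), calcium set to give 25% of maximal rate (pCa25). ATPase followed by pyruvate kinase/lactate dehydrogenase-coupled NADH oxidation, absorbance at 340 nm. PM12 buffer: 12 mM PIPES, 2 mM MgCl2, 1 mM DTT, pH 6.8.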
In the case of `CC[C@H](C)[C@H]1C(=O)Nc2ccccc2CN1C(=O)Nc1ccn(C)c(=O)c1` [Compound 291, (S)-3-((S)-sec-butyl)-N-(1-methyl-2-oxo-1,2-dihydropyridin-4-yl)-2-oxo-1,2,3,5-tetrahydro-4H-benzo[e][1,4]diazepine-4-carboxamide], the AC1.4 came out at 0.05 µM. The figure for `CC[C@H](C)[C@H]1C(=O)Nc2ccccc2CN1C(=O)Nc1cncc(OC)c1` [Compound 292, (S)-3-((S)-sec-butyl)-N-(5-methoxypyridin-3-yl)-2-oxo-1,2,3,5-tetrahydro-4H-benzo[e][1,4]diazepine-4-carboxamide] is 0.05 µM. The figure for `CC[C@H](C)[C@H]1C(=O)Nc2ccccc2CN1C(=O)NC1CCOCC1` [Compound 293, (S)-3-((S)-sec-butyl)-2-oxo-N-(tetrahydro-2H-pyran-4-yl)-1,2,3,5-tetrahydro-4H-benzo[e][1,4]diazepine-4-carboxamide] is 0.55 µM; for `CC[C@H](C)[C@H]1C(=O)Nc2ccccc2CN1C(=O)N1CC[C@H](C(=O)NC)C1` [Compound 294, (S)-1-((S)-3-((S)-sec-butyl)-2-oxo-2,3,4,5-tetrahydro-1H-benzo[e][1,4]diazepine-4-carbonyl)-N-methylpyrrolidine-3-carboxamide] it is 2.32 µM; for `CC[C@H](C)[C@H]1C(=O)Nc2ccccc2CN1C(=O)N1CC[C@H](C(=O)N(C)C)C1` [Compound 295] it is 3.41 µM. The figure for `CC[C@H](C)[C@H]1C(=O)Nc2ccccc2CN1C(=O)N1CC[C@H](C(N)=O)C1` [Compound 296, (S)-1-((S)-3-((S)-sec-butyl)-2-oxo-2,3,4,5-tetrahydro-1H-benzo[e][1,4]diazepine-4-carbonyl)pyrrolidine-3-carboxamide] is 1.75 µM; for `CC[C@H](C)[C@H]1C(=O)Nc2ccccc2CN1C(=O)N(C)C(C)C` [Compound 297, (S)-3-((S)-sec-butyl)-N-isopropyl-N-methyl-2-oxo-1,2,3,5-tetrahydro-4H-benzo[e][1,4]diazepine-4-carboxamide] it is 1.13 µM; for `CC[C@H](C)[C@H]1C(=O)Nc2ccccc2CN1C(=O)Nc1cncc(C(N)=O)c1` [Compound 298, (S)-3-((S)-sec-butyl)-N-(5-carbamoylpyridin-3-yl)-2-oxo-1,2,3,5-tetrahydro-4H-benzo[e][1,4]diazepine-4-carboxamide] it is 0.07 µM. Regarding `CC[C@H](C)[C@H]1C(=O)Nc2ccccc2CN1C(=O)Nc1ccn(CCOC)n1` [Compound 299, (S)-3-((S)-sec-butyl)-N-(1-(2-methoxyethyl)-1H-pyrazol-3-yl)-2-oxo-1,2,3,5-tetrahydro-4H-benzo[e][1,4]diazepine-4-carboxamide], the AC1.4 came to 0.18 µM. The figure for `CC[C@H](C)[C@H]1C(=O)Nc2ccccc2CN1C(=O)N1CC(F)(F)C1` [Compound 300, (S)-3-((S)-sec-butyl)-4-(3,3-difluoroazetidine-1-carbonyl)-1,3,4,5-tetrahydro-2H-benzo[e][1,4]diazepin-2-one] is 0.42 µM; for `CC[C@H](C)[C@H]1C(=O)Nc2ccccc2CN1C(=O)NC1CCN(CCO)CC1` [Compound 301, (S)-3-((S)-sec-butyl)-N-(1-(2-hydroxyethyl)piperidin-4-yl)-2-oxo-1,2,3,5-tetrahydro-4H-benzo[e][1,4]diazepine-4-carboxamide] it is 0.36 µM; for `CC[C@H](C)[C@H]1C(=O)Nc2ccccc2CN1C(=O)N1CCC[C@@H](CO)C1` [Compound 302, (S)-3-((S)-sec-butyl)-4-((R)-3-(hydroxymethyl)piperidine-1-carbonyl)-1,3,4,5-tetrahydro-2H-benzo[e][1,4]diazepin-2-one] it is 0.82 µM.

In the case of `CC[C@H](C)[C@H]1C(=O)Nc2ccccc2CN1C(=O)N1CCC[C@H](CO)C1` [Compound 303, (S)-3-((S)-sec-butyl)--4-((S)-3-(hydroxymethyl)piperidine-1-carbonyl)-1,3,4,5-tetrahydro-2H-benzo[e][1,4]diazepin-2-one], the AC1.4 turned out to be 0.89 µM. Take `CC[C@H](C)[C@H]1C(=O)Nc2ccccc2CN1C(=O)N1CCCC(C(N)=O)C1` (stereo partly drawn) [Compound 304, 1-((S)-3-((S)-sec-butyl)-2-oxo-2,3,4,5-tetrahydro-1H-benzo[e][1,4]diazepine-4-carbonyl)piperidine-3-carboxamide]: the AC1.4 was 2.27 µM. Take `CC[C@H](C)[C@H]1C(=O)Nc2ccccc2CN1C(=O)N1CCCC(C(N)=O)C1` (stereo partly drawn) [Compound 305, 1-((S)-3-((S)-sec-butyl)-2-oxo-2,3,4,5-tetrahydro-1H-benzo[e][1,4]diazepine-4-carbonyl)piperidine-3-carboxamide]: the AC1.4 was determined as 1.42 µM. The figure for `CC[C@H](C)[C@H]1C(=O)Nc2ccccc2CN1C(=O)N1CC(F)C1` [Compound 306, (S)-3-((S)-sec-butyl)-4-(3-fluoroazetidine-1-carbonyl)-1,3,4,5-tetrahydro-2H-benzo[e][1,4]diazepin-2-one] is 0.11 µM; for `CC[C@H](C)[C@H]1C(=O)Nc2ccccc2CN1C(=O)N[C@@H]1CCNC1` [Compound 307, (S)-3-((S)-sec-butyl)-2-oxo-N-((R)-pyrrolidin-3-yl)-1,2,3,5-tetrahydro-4H-benzo[e][1,4]diazepine-4-carboxamide] it is 0.52 µM. To `CC[C@H](C)[C@H]1C(=O)Nc2ccccc2CN1C(=O)N[C@H]1CCNC1` [Compound 308, (S)-3-((S)-sec-butyl)-2-oxo-N-((S)-pyrrolidin-3-yl)-1,2,3,5-tetrahydro-4H-benzo[e][1,4]diazepine-4-carboxamide] belongs 0.32 µM.

`COCCN1Cc2ccccc2NC(=O)[C@@H]1C1CCCCCC1` [Compound 309, (S)-3-cycloheptyl-4-(2-methoxyethyl)-1,3,4,5-tetrahydro-2H-benzo[e][1,4]diazepin-2-one]: the AC1.4 was 0.59 µM. The figure for `CC[C@H](C)[C@H]1C(=O)Nc2ccccc2CN1CCOC` [Compound 310, (S)-3-((S)-sec-butyl)-4-(2-methoxyethyl)-1,3,4,5-tetrahydro-2H-benzo[e][1,4]diazepin-2-one] is 4.17 µM; for `CC[C@H](C)[C@H]1C(=O)Nc2ccccc2CN1CC(=O)NC` [Compound 311, 2-((S)-3-((S)-sec-butyl)-2-oxo-1,2,3,4-tetrahydro-4H-benzo[e][1,4]diazepin-4-yl)-N-methylacetamide] it is 2.60 µM. To `CC[C@H](C)[C@H]1C(=O)Nc2ccccc2CN1CCC(N)=O` [Compound 312, 3-((S)-3-((S)-sec-butyl)-2-oxo-1,2,3,5-tetrahydro-4H-benzo[e][1,4]diazepin-4-yl)propanamide] belongs 1.22 µM; to `CC[C@H](C)[C@H]1C(=O)Nc2ccccc2CN1CCC(=O)N(C)C` [Compound 313, 3-((S)-3-((S)-sec-butyl)-2-oxo-1,2,3,5-tetrahydro-4H-benzo[e][1,4]diazepin-4-yl)-N,N-dimethylpropanamide], 1.22 µM; to `CC[C@H](C)[C@H]1C(=O)Nc2ccccc2CN1CCC(=O)NC` [Compound 314, 3-((S)-3-((S)-sec-butyl)-2-oxo-1,2,3,5-tetrahydro-4H-benzo[e][1,4]diazepin-4-yl)-N-methylpropanamide], 0.72 µM. To `CC[C@H](C)[C@H]1C(=O)Nc2ccccc2CN1CC1CCCC1` [Compound 315, (S)-3-((S)-sec-butyl)-4-(cyclopentylmethyl)-1,3,4,5-tetrahydro-2H-benzo[e][1,4]diazepin-2-one] belongs 0.65 µM; to `CC[C@H](C)[C@H]1C(=O)Nc2ccccc2CN1CC#N` [Compound 316, 2-((S)-3-((S)-sec-butyl)-2-oxo-1,2,3,5-tetrahydro-4H-benzo[e][1,4]diazepin-4-yl)acetonitrile], 1.07 µM. `CC[C@H](C)[C@H]1C(=O)Nc2ccccc2C(CO)N1C(N)=O` (stereo partly drawn) [Compound 317, (3S)-3-((S)-sec-butyl)-5-(hydroxymethyl)-2-oxo-1,2,3,5-tetrahydro-4H-benzo[e][1,4]diazepine-4-carboxamide]: the AC1.4 was 1.30 µM. The figure for `CC[C@H](C)[C@H]1C(=O)Nc2ccccc2C2COC(=O)N21` (stereo partly drawn) [Compound 318, (5S)-5-((S)-sec-Butyl)-7,11b-dihydro-1H,3H-benzo[f]oxazolo[3,4-d][1,4]diazepine-3,6(5H)-dione] is 0.19 µM. For the compound `CC[C@H](C)[C@H]1C(=O)Nc2ccccc2[C@@H](C)N1C(=O)c1cnn(C)c1` [Compound 319, (3S,5R)-3-((S)-sec-butyl)-5-methyl-4-(1-methyl-1H-pyrazole-4-carbonyl)-1,3,4,5-tetrahydro-2H-benzo[e][1,4]diazepin-2-one], the AC1.4 worked out at 0.80 µM. The figure for `CC[C@H](C)[C@H]1C(=O)Nc2ccccc2[C@@H](C)N1C(N)=O` [Compound 320, (3S,5R)-3-((S)-sec-butyl)-5-methyl-2-oxo-1,2,3,5-tetrahydro-4H-benzo[e][1,4]diazepine-4-carboxamide] is 1.25 µM; for `CC(C)[C@H]1C(=O)Nc2ccccc2CN1C(=O)c1ccn(C)n1` [Compound 322, (S)-3-isopropyl-4-(1-methyl-1H-pyrazole-3-carbonyl)-1,3,4,5-tetrahydro-2H-benzo[e][1,4]diazepin-2-one] it is 1.15 µM; for `CC(C)[C@H]1C(=O)Nc2ccccc2CN1c1nccs1` [Compound 323, (S)-3-isopropyl-4-(thiazol-2-yl)-1,3,4,5-tetrahydro-2H-benzo[e][1,4]diazepin-2-one] it is 0.66 µM. The figure for `Cc1nsc(N2Cc3ccccc3NC(=O)[C@@H]2C(C)C)n1` [Compound 324, (S)-3-isopropyl-4-(3-methyl-1,2,4-thiadiazol-5-yl)-1,3,4,5-tetrahydro-2H-benzo[e][1,4]diazepin-2-one] is 1.16 µM; for `CC(C)[C@H]1C(=O)Nc2ccccc2CN1C(=O)N(C)C` [Compound 325, (S)-3-isopropyl-N,N-dimethyl-2-oxo-1,2,3,5-tetrahydro-4H-benzo[e][1,4]diazepine-4-carboxamide] it is 1.81 µM.

The record behind these values is patent US12441691B2 (Cytokinetics, Inc., priority 2020, dated 2025).
